Data: ChEMBL document CHEMBL1275550, “In vitro activity of doripenem, a carbapenem for the treatment of challenging infections caused by gram-negative bacteria, against recent clinical isolates from the United States” (2008)
≈ marks a conversion by molar mass, not a printed value.

Assays:
Assay type in all cases: functional
Citrobacter [1] = experiment: Antimicrobial activity against Citrobacter with nonderepressed AmpC beta-lactamsae by broth microdilution method
Enterobacter cloacae [2] = experiment: Antimicrobial activity against Enterobacter cloacae with derepressed AmpC beta-lactamsae assessed as susceptible isolate by broth microdilution method
Enterobacteriaceae [3] = experiment: Antimicrobial activity against Enterobacteriaceae by broth microdilution method
Proteus mirabilis [4] = experiment: Antimicrobial activity against Proteus mirabilis assessed as susceptible isolate by broth microdilution method
Acinetobacter [5] = experiment: Antimicrobial activity against Acinetobacter assessed as susceptible isolate by broth microdilution method
Proteus mirabilis [6] = experiment: Antimicrobial activity against ESBL producing Proteus mirabilis by broth microdilution method
Enterobacter cloacae [7] = experiment: Antimicrobial activity against Enterobacter cloacae with nonderepressed AmpC beta-lactamsae by broth microdilution method
Pseudomonas aeruginosa [8] = experiment: Antimicrobial activity against Ceftazidime non-susceptible Pseudomonas aeruginosa by broth microdilution method
Streptococcus pneumoniae = experiment: Antimicrobial activity against penicillin-susceptible Streptococcus pneumoniae by broth microdilution method; conditions: Streptococcus pneumoniae
Escherichia coli [9] = experiment: Antimicrobial activity against Non-ESBL Escherichia coli assessed as susceptible isolate by broth microdilution method
Pseudomonas aeruginosa [10] = experiment: Antimicrobial activity against Pseudomonas aeruginosa isolated from ICU patient by broth microdilution method
Escherichia coli [11] = experiment: Antimicrobial activity against Non-ESBL Escherichia coli by broth microdilution method
Serratia marcescens [12] = experiment: Antimicrobial activity against Ceftazidime susceptible Serratia marcescens by broth microdilution method
Enterobacter cloacae [13] = experiment: Antimicrobial activity against Enterobacter cloacae assessed as susceptible isolate by broth microdilution method
Escherichia coli [14] = experiment: Antimicrobial activity against ESBL producing Escherichia coli by broth microdilution method
Acinetobacter [15] = experiment: Antimicrobial activity against imipenem non-susceptible Acinetobacter by broth microdilution method
Enterobacter cloacae [16] = experiment: Antimicrobial activity against Enterobacter cloacae with derepressed AmpC beta-lactamsae by broth microdilution method
Acinetobacter [17] = experiment: Antimicrobial activity against imipenem susceptible Acinetobacter by broth microdilution method
Staphylococcus = experiment: Antimicrobial activity against methicillin-susceptible coagulase-negative Staphylococcus by broth microdilution method; conditions: Staphylococcus
Pseudomonas aeruginosa [18] = experiment: Antimicrobial activity against imipenem susceptible Pseudomonas aeruginosa by broth microdilution method
Enterobacteriaceae [19] = experiment: Antimicrobial activity against Ceftazidime non-susceptible Enterobacteriaceae assessed as susceptible isolate by broth microdilution method
Serratia marcescens [20] = experiment: Antimicrobial activity against Ceftazidime non-susceptible Serratia marcescens by broth microdilution method
Pseudomonas aeruginosa [21] = experiment: Antimicrobial activity against imipenem non-susceptible Pseudomonas aeruginosa assessed as susceptible isolate by broth microdilution method
Klebsiella pneumoniae [22] = experiment: Antimicrobial activity against Non-ESBL Klebsiella pneumoniae by broth microdilution method
Staphylococcus aureus = experiment: Antimicrobial activity against methicillin-susceptible Staphylococcus aureus by broth microdilution method; conditions: Staphylococcus aureus
Escherichia coli [23] = experiment: Antimicrobial activity against ESBL producing Escherichia coli assessed as susceptible isolate by broth microdilution method
Serratia marcescens [24] = experiment: Antimicrobial activity against Serratia marcescens assessed as susceptible isolate by broth microdilution method
Enterobacteriaceae [25] = experiment: Antimicrobial activity against ceftazidime-susceptible Enterobacteriaceae assessed as susceptible isolate by broth microdilution method
Acinetobacter [26] = experiment: Antimicrobial activity against imipenem non-susceptible Acinetobacter assessed as susceptible isolate by broth microdilution method
Serratia marcescens [27] = experiment: Antimicrobial activity against Serratia marcescens by broth microdilution method
Klebsiella pneumoniae [28] = experiment: Antimicrobial activity against Klebsiella pneumoniae assessed as susceptible isolate by broth microdilution method
Citrobacter [29] = experiment: Antimicrobial activity against Citrobacter with derepressed AmpC beta-lactamsae by broth microdilution method
Escherichia coli [30] = experiment: Antimicrobial activity against Escherichia coli by broth microdilution method
Proteus mirabilis [31] = experiment: Antimicrobial activity against Non-ESBL Proteus mirabilis by broth microdilution method
Pseudomonas aeruginosa [32] = experiment: Antimicrobial activity against Pseudomonas aeruginosa assessed as susceptible isolate by broth microdilution method

**Q.** With `C[C@@H](O)[C@H]1C(=O)N2C(C(=O)O)=C(S[C@@H]3CN[C@H](CNS(N)(=O)=O)C3)[C@H](C)[C@H]12` [DORIPENEM] as the compound, how does the MIC50 (Citrobacter [1]) read?
**A.** 0.03 µg/mL (≈ 0.0713 µM)

**Q.** What about the MIC90 (Citrobacter [1]) of the same compound?
**A.** 0.06 µg/mL (≈ 0.143 µM)

**Q.** What about the Activity (Enterobacter cloacae [2]) of the same compound?
**A.** 99%

**Q.** And the MIC50 (Enterobacteriaceae [3])?
**A.** 0.03 µg/mL (≈ 0.0713 µM)

**Q.** And the MIC90 (Enterobacteriaceae [3])?
**A.** 0.12 µg/mL (≈ 0.285 µM)

**Q.** What about the Activity (Proteus mirabilis [4]) of the same compound?
**A.** 98.9%

**Q.** What about the Activity (Acinetobacter [5]) of the same compound?
**A.** 73.4%

**Q.** And the MIC (Proteus mirabilis [6])?
**A.** 0.06 µg/mL (≈ 0.143 µM)

**Q.** And the MIC50 (Enterobacter cloacae [7])?
**A.** 0.03 µg/mL (≈ 0.0713 µM)

**Q.** And the MIC90 (Enterobacter cloacae [7])?
**A.** 0.06 µg/mL (≈ 0.143 µM)

**Q.** And the MIC50 (Pseudomonas aeruginosa [8])?
**A.** 1 µg/mL (≈ 2.38 µM)

**Q.** What about the MIC90 (Pseudomonas aeruginosa [8]) of the same compound?
**A.** 16 µg/mL (≈ 38 µM)

**Q.** And the MIC50 (Streptococcus pneumoniae)?
**A.** ≤ 0.015 µg/mL

**Q.** What about the MIC90 (Streptococcus pneumoniae; read-out: MIC90) of the same compound?
**A.** ≤ 0.015 µg/mL

**Q.** And the Activity (Escherichia coli [9])?
**A.** 99.8%

**Q.** What about the MIC50 (Pseudomonas aeruginosa [10]) of the same compound?
**A.** 0.5 µg/mL (≈ 1.19 µM)

**Q.** And the MIC90 (Pseudomonas aeruginosa [10])?
**A.** 8 µg/mL (≈ 19 µM)

**Q.** What about the MIC (Escherichia coli [11]) of the same compound?
**A.** ≤ 0.015 µg/mL

**Q.** What about the MIC50 (Escherichia coli [11]) of the same compound?
**A.** ≤ 0.015 µg/mL

**Q.** And the MIC90 (Escherichia coli [11])?
**A.** 0.03 µg/mL (≈ 0.0713 µM)

**Q.** What about the MIC50 (Serratia marcescens [12]) of the same compound?
**A.** 0.12 µg/mL (≈ 0.285 µM)

**Q.** And the MIC90 (Serratia marcescens [12])?
**A.** 0.25 µg/mL (≈ 0.595 µM)

**Q.** And the Activity (Enterobacter cloacae [13])?
**A.** 99.2%

**Q.** What about the MIC50 (Escherichia coli [14]) of the same compound?
**A.** 0.03 µg/mL (≈ 0.0713 µM)

**Q.** And the MIC90 (Escherichia coli [14])?
**A.** 0.06 µg/mL (≈ 0.143 µM)

**Q.** What about the MIC50 (Acinetobacter [15]) of the same compound?
**A.** 32 µg/mL (≈ 76.1 µM)

**Q.** What about the MIC90 (Acinetobacter [15]) of the same compound?
**A.** > 32 µg/mL

**Q.** What about the MIC50 (Enterobacter cloacae [16]) of the same compound?
**A.** 0.12 µg/mL (≈ 0.285 µM)

**Q.** What about the MIC90 (Enterobacter cloacae [16]) of the same compound?
**A.** 0.25 µg/mL (≈ 0.595 µM)

**Q.** And the MIC50 (Acinetobacter [17])?
**A.** 0.25 µg/mL (≈ 0.595 µM)

**Q.** What about the MIC90 (Acinetobacter [17]) of the same compound?
**A.** 2 µg/mL (≈ 4.76 µM)

**Q.** And the MIC50 (Staphylococcus; read-out: MIC50)?
**A.** 0.03 µg/mL (≈ 0.0713 µM)

**Q.** What about the MIC90 (Staphylococcus; read-out: MIC90) of the same compound?
**A.** 0.06 µg/mL (≈ 0.143 µM)

**Q.** And the MIC50 (Pseudomonas aeruginosa [18])?
**A.** 0.25 µg/mL (≈ 0.595 µM)

**Q.** And the MIC90 (Pseudomonas aeruginosa [18])?
**A.** 1 µg/mL (≈ 2.38 µM)

**Q.** And the Activity (Enterobacteriaceae [19])?
**A.** 96.7%

**Q.** And the MIC50 (Serratia marcescens [20])?
**A.** 0.12 µg/mL (≈ 0.285 µM)

**Q.** And the MIC90 (Serratia marcescens [20])?
**A.** 0.25 µg/mL (≈ 0.595 µM)

**Q.** What about the Activity (Pseudomonas aeruginosa [21]) of the same compound?
**A.** 55.6%

**Q.** And the MIC50 (Klebsiella pneumoniae [22])?
**A.** 0.03 µg/mL (≈ 0.0713 µM)

**Q.** What about the MIC90 (Klebsiella pneumoniae [22]) of the same compound?
**A.** 0.06 µg/mL (≈ 0.143 µM)

**Q.** And the MIC50 (Staphylococcus aureus; read-out: MIC50)?
**A.** 0.03 µg/mL (≈ 0.0713 µM)

**Q.** What about the MIC90 (Staphylococcus aureus; read-out: MIC90) of the same compound?
**A.** 0.06 µg/mL (≈ 0.143 µM)

**Q.** What about the Activity (Escherichia coli [23]) of the same compound?
**A.** 100%

**Q.** What about the Activity (Serratia marcescens [24]) of the same compound?
**A.** 98.7%

**Q.** And the Activity (Enterobacteriaceae [25])?
**A.** 99.7%

**Q.** And the Activity (Acinetobacter [26])?
**A.** 0%

**Q.** And the MIC50 (Serratia marcescens [27])?
**A.** 0.12 µg/mL (≈ 0.285 µM)

**Q.** And the MIC90 (Serratia marcescens [27])?
**A.** 0.25 µg/mL (≈ 0.595 µM)

**Q.** What about the Activity (Klebsiella pneumoniae [28]) of the same compound?
**A.** 99.6%

**Q.** What about the MIC50 (Citrobacter [29]) of the same compound?
**A.** 0.06 µg/mL (≈ 0.143 µM)

**Q.** And the MIC90 (Citrobacter [29])?
**A.** 0.06 µg/mL (≈ 0.143 µM)

**Q.** And the MIC (Escherichia coli [30])?
**A.** ≤ 0.015 µg/mL

**Q.** And the MIC50 (Escherichia coli [30])?
**A.** ≤ 0.015 µg/mL

**Q.** And the MIC90 (Escherichia coli [30])?
**A.** 0.03 µg/mL (≈ 0.0713 µM)

**Q.** And the MIC50 (Proteus mirabilis [31])?
**A.** 0.12 µg/mL (≈ 0.285 µM)

**Q.** And the MIC90 (Proteus mirabilis [31])?
**A.** 0.5 µg/mL (≈ 1.19 µM)

**Q.** What about the Activity (Pseudomonas aeruginosa [32]) of the same compound?
**A.** 88.3%
